Our source for the IC50, Activity and EC50 values is ChEMBL document CHEMBL5143599, “Unraveling the Design and Discovery of c-Jun N-Terminal Kinase Inhibitors and Their Therapeutic Potential in Human Diseases” (J Med Chem, 2022).

Experiment [1] addresses Mitogen-activated protein kinase 14 (Homo sapiens, UniProt Q16539). Nature of the experiment: Inhibition of p38alpha (unknown origin).
The target of experiment [2] is T1, Mitogen-activated protein kinase 10 (Homo sapiens, UniProt P53779). Nature of the experiment: Inhibition of JNK3 (unknown origin).
T1 sequence (P53779 whole entry): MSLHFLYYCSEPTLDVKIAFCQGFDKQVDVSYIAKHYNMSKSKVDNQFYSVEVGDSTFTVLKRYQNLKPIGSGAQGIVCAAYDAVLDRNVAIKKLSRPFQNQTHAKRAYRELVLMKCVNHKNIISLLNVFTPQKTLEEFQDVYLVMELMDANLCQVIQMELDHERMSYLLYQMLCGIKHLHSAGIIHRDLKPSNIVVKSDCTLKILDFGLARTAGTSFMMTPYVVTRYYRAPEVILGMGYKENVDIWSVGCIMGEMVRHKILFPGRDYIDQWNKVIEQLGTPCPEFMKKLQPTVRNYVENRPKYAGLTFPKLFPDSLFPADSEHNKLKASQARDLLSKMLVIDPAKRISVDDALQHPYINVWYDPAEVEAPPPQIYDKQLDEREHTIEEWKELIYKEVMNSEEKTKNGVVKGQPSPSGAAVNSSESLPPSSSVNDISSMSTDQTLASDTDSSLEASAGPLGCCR
In experiment [3] the target is Mitogen-activated protein kinase 8 (Mus musculus, UniProt Q91Y86). Nature of the experiment: Inhibition of JNK1 in mouse JB6 C1 41 cell lysate incubated for 1 hr relative to control. In kind it is subcellular, JB6 Cl 41-5a.
Mitogen-activated protein kinase 8 (Mus musculus, UniProt Q91Y86), sequence (Q91Y86 whole entry): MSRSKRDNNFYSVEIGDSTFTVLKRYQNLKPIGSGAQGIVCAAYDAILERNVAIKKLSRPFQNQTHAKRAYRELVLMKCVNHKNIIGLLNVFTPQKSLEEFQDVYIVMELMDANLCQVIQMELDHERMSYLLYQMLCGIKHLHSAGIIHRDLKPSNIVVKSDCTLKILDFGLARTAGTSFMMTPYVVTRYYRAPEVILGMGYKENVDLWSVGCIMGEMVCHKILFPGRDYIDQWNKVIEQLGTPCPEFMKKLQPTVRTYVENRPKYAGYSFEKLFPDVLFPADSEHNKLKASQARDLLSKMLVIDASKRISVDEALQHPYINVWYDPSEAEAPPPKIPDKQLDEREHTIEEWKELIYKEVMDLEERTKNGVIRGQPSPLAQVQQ
Experiment [4] in a line: Inhibition of transformation of H-RAS induced mouse JB6 C1 41 cells at 5 uM. Set-up: scale not given: the % may be the effect or the level left. In kind it is functional, JB6 Cl 41-5a.
Experiment [5] can be described thus: Antitumor activity against UVB-induced skin cancer SKH-1 mouse model assessed as reduction in tumor growth at 20 nmol, top relative to control. In kind it is functional, Tumor cell line. Also noted: scale not given: the % may be the effect or the level left.
Experiment [6] in a line: Antitumor activity against UVB-induced skin cancer SKH-1 mouse model assessed as reduction in tumor growth at 4 nmol, top relative to control. Type of experiment: functional, Tumor cell line. Also noted: scale not given: the % may be the effect or the level left.
Experiment [7] has as its target T2, Mitogen-activated protein kinase 8 (Homo sapiens, UniProt P45983). Nature of the experiment: Inhibition of JNK1 (unknown origin) incubated for 1 hr by TR-FRET assay. In general terms: TR-FRET usually uses a lanthanide donor and a delayed reading to cut background.
Experiment [8] deals with T3, c-Jun N-terminal kinase, JNK (Homo sapiens, UniProt P45983+P53779+P45984). Nature of the experiment: Inhibition of c-Jun phosphorylation in human HeLa cells. Type of experiment: cell-based.
Experiment [9] has as its target T3, c-Jun N-terminal kinase, JNK. The experiment can be described thus: Inhibition of c-Jun phosphorylation in human A-375 cells. In kind it is cell-based.
The target in experiment [10] is Mitogen-activated protein kinase 9 (Homo sapiens, UniProt P45984). Nature of the experiment: Inhibition of JNK2 (unknown origin) using GST-c-jun (1-221) as substrate by scintillation counter analysis.
Mitogen-activated protein kinase 9, sequence (P45984 whole entry): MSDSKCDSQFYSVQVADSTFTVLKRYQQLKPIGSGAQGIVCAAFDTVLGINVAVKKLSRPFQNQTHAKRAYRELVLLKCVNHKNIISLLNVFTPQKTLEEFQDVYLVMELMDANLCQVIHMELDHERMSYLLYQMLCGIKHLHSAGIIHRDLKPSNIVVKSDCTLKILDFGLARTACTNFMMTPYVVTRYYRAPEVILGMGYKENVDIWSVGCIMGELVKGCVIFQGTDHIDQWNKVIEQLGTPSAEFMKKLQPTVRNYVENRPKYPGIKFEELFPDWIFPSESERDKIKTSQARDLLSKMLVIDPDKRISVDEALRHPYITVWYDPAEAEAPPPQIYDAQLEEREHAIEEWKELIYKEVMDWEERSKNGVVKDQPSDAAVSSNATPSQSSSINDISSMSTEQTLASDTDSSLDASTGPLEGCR
For experiment [11], the target named is T1, Mitogen-activated protein kinase 10. Nature of the experiment: Inhibition of JNK3 (unknown origin) using GST-c-jun (1-221) as substrate by scintillation counter analysis.
The target of experiment [12] is T2, Mitogen-activated protein kinase 8. Nature of the experiment: Inhibition of JNK1 (unknown origin) using GST-c-jun (1-221) as substrate by scintillation counter analysis.
For experiment [13], the target named is T1, Mitogen-activated protein kinase 10. Nature of the experiment: Inhibition of JNK3 (unknown origin) using biotinylated FL-ATF-2 as substrate incubated for 15 mins by HTRF assay.
The target in experiment [14] is T2, Mitogen-activated protein kinase 8. Nature of the experiment: Inhibition of JNK1 (unknown origin) using biotinylated FL-ATF-2 as substrate incubated for 15 mins by HTRF assay.
Experiment [15] has the same target. Nature of the experiment: Inhibition of JNK1 (unknown origin).
In experiment [16] the target is T1, Mitogen-activated protein kinase 10. The experiment can be described thus: Inhibition of JNK3 (unknown origin) in dark.
The target is the same in experiment [17]. Nature of the experiment: Inhibition of JNK3 (unknown origin) irradiated with 400 nm light.
In experiment [18] the target is Leucine-rich repeat serine/threonine-protein kinase 2 (Homo sapiens, UniProt Q5S007). Nature of the experiment: Inhibition of LRRK2 (unknown origin).
Leucine-rich repeat serine/threonine-protein kinase 2, sequence (Q5S007 whole entry): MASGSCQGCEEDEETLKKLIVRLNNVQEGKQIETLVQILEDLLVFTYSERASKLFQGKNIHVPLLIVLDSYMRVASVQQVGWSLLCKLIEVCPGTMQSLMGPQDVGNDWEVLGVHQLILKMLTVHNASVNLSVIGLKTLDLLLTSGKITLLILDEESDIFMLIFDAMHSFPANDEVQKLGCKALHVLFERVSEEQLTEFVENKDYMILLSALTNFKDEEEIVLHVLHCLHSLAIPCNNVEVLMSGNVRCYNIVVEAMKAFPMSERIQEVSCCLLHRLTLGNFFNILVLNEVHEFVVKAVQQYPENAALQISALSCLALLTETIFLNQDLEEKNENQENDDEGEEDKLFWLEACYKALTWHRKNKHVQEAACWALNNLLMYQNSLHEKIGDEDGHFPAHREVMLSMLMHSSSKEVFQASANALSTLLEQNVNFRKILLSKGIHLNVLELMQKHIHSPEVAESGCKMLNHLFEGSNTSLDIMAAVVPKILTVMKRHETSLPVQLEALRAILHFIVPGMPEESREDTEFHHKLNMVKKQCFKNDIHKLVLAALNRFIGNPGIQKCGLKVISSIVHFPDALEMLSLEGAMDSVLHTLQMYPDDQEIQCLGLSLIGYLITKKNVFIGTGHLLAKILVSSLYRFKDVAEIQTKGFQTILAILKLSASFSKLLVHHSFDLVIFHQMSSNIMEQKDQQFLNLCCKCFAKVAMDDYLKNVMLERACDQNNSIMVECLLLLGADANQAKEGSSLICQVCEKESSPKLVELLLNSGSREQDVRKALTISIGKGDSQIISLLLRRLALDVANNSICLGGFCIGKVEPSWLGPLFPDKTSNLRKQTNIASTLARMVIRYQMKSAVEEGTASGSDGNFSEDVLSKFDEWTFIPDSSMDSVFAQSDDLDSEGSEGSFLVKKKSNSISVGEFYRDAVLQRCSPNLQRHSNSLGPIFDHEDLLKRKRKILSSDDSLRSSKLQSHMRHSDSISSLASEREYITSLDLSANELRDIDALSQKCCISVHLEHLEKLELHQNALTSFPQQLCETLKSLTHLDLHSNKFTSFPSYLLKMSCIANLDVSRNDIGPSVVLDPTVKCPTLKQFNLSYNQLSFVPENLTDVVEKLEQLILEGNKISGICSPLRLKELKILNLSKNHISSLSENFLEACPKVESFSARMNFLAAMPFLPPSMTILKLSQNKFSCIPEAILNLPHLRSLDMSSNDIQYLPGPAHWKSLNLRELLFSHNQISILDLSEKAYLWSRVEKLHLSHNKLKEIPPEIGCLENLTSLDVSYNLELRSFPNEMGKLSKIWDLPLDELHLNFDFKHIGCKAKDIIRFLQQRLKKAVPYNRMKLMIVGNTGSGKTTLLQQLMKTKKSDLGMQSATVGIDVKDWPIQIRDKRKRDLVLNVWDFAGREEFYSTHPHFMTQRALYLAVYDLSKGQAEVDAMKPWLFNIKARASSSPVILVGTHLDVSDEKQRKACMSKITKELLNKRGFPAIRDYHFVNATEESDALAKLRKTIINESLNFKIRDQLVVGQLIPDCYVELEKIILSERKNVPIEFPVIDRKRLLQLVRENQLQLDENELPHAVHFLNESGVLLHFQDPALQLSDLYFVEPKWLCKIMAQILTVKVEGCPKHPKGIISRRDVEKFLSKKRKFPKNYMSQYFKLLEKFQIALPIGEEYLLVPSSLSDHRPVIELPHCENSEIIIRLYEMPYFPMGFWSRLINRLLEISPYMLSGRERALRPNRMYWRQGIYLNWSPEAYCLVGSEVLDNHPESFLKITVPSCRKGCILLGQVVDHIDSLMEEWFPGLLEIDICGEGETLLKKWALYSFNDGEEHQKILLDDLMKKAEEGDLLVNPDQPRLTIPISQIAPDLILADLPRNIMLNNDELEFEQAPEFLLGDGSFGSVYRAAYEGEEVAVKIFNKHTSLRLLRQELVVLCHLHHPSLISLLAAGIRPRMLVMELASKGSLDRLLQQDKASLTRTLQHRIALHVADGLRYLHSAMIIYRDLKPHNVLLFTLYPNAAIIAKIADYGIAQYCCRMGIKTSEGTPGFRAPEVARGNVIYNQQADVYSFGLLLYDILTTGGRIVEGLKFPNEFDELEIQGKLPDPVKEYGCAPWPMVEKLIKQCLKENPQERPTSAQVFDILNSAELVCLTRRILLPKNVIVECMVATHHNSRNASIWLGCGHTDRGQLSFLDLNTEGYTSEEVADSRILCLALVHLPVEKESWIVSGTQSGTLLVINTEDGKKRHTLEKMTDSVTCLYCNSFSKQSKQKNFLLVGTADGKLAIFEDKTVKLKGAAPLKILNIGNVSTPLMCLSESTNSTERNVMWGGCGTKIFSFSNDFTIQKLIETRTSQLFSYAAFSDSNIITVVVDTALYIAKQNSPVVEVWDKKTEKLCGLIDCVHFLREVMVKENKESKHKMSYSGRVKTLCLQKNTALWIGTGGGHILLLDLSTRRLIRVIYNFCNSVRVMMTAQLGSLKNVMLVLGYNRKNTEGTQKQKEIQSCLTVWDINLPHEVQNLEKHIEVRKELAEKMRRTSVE

Non-standard residues stand in square brackets, D forms with d. Residues, ends and D or L forms follow the SMILES beside them. Ahx = NCCCCCC(=O)O

T2 sequence (P45983 whole entry): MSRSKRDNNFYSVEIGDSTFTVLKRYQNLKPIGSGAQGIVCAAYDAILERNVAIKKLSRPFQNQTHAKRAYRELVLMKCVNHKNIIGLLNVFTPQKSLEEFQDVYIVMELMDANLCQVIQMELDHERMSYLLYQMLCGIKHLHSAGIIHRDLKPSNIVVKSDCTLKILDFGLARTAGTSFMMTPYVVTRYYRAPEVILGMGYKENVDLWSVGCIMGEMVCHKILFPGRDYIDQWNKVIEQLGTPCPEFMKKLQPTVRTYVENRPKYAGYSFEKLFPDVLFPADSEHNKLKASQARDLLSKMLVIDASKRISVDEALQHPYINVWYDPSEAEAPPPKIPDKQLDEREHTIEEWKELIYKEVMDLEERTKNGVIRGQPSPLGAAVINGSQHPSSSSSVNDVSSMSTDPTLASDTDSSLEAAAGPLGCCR
Mitogen-activated protein kinase 14, sequence (Q16539 whole entry): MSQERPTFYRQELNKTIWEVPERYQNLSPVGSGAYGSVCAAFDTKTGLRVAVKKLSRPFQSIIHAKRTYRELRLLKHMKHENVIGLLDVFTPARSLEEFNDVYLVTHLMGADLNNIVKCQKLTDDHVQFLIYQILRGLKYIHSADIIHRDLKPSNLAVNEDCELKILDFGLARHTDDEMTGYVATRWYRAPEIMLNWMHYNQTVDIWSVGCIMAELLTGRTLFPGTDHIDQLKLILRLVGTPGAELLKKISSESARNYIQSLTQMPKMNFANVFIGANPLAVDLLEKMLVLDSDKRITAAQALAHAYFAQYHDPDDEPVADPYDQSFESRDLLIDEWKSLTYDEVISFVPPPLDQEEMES

Usually IC50 stands for the midpoint of a concentration-inhibition curve. On to `C=CC(=O)Nc1cccc(C(=O)Nc2ccc(Nc3cc(-c4c(C)nc(SC)n4C)ccn3)cc2)c1`, for which the IC50 in [1] was found to be 1950 nM; in experiment [2], 2000 nM.
With `CSc1nc(C)c(-c2ccnc(Nc3ccc(N4CCOCC4)cc3)c2)[nH]1`, the values for the IC50 in experiment [1] and in [2] were > 10000 nM and 184 nM, respectively.
In experiment [3], `O=c1c(O)c(-c2ccc(O)c(O)c2)oc2cc(O)c(O)c(O)c12` [QUERCETAGETIN] gave a half-inhibitory concentration (IC50) of 4600 nM. In addition, the Activity in experiment [4] was determined as 73%; in experiment [5] it was 46.7%; in experiment [6], 32%.
Consider `COCCNc1nnc(Sc2ncc([N+](=O)[O-])s2)s1`, for which, in experiment [7], the half-inhibitory concentration (IC50) was determined as 280 nM.
One may read the EC50 as the concentration giving half of the maximal effect. For the compound `CN(C)C/C=C/C(=O)Nc1cccc(C(=O)Nc2ccc(Nc3nccc(-c4c(-c5ccccc5)nn5ccccc45)n3)cc2)c1`, the 50% effective concentration (EC50) in experiment [8] stood at 48 nM; in experiment [9] it was 8.6 nM.
Turning to H-PKRPTTLNLFRRRQRRKKRG-OH, the half-inhibitory concentration (IC50) was determined as 92 nM in [10], 1200 nM in experiment [11] and 1160 nM in experiment [12].
As to `O=C(CSc1c(-c2ccccc2)c2cc(Cl)ccc2[nH]c1=O)NC1CCCC1`, the IC50 in experiment [2] stood at 58.2 nM.
`Cc1ccc(NC(=O)c2cccc(-n3cc(NC(=O)Nc4ccccc4Cl)cn3)c2)cn1`: the half-maximal inhibitory concentration (IC50) in experiment [13] amounted to 55 nM; in [14], 1400 nM.
As for `O=c1c(O)c(-c2cc(O)c(O)c(CO)c2)oc2cc(O)c(O)c(O)c12`, it took 12200 nM to reach half-maximal inhibition in experiment [15] (IC50).
Take `O=c1c(O)c(-c2cc(O)c(O)c(O)c2)oc2cc(O)c(O)c(O)c12`: in [15], the IC50 came out at 3400 nM.
For the compound `CC[C@H](C)[C@H](NC(=O)[C@@H]1CCCN1)C(=O)N[C@@H](CS)C(=O)N[C@@H](CCCNC(=N)N)C(=O)N1CCC[C@H]1C(=O)N[C@H](C(=O)N[C@H](C(=O)N[C@@H](CC(C)C)C(=O)N[C@@H](CC(N)=O)C(=O)N[C@@H](CC(C)C)C(=O)N[C@@H](Cc1ccccc1)C(=O)NCCCCCC(=O)N[C@@H](CCCNC(=N)N)C(=O)N[C@@H](CCCNC(=N)N)C(=O)N[C@@H](C)C(=O)N[C@@H](CCCNC(=N)N)C(=O)N[C@@H](CCCNC(=N)N)C(=O)N[C@@H](C)C(=O)N[C@@H](CCCNC(=N)N)C(=O)N[C@@H](CCCNC(=N)N)C(=O)N[C@@H](CCCNC(=N)N)C(=O)O)[C@@H](C)O)[C@@H](C)O` (H-PICRPTTLNLF[Ahx]RRARRARRR-OH), the half-inhibitory concentration (IC50) in experiment [10] came out at 89 nM; in [11] it was 1200 nM; in experiment [12], 1100 nM.
Regarding `O=[N+]([O-])c1cnc(Sc2nnc(O)n2-c2ccc3c(c2)OCCO3)s1`, the half-inhibitory concentration (IC50) was found to be 507 nM in [16] and 31.9 nM in experiment [17].
As to `CC(C)CN(CC(=O)NCCCCCCNC(=O)c1ccc(-c2n[nH]c3ccccc23)cc1)C(=O)CNC(=O)C1COc2ccccc2C1` (stereo unspecified), the IC50 in experiment [2] came to 99 nM; in experiment [18] it was 12 nM.
